Test results reported in patent publication US6391505B1, “Phthalocyanine crystal and its production, and electrophotosensitive material using the same” (Kyocera Mita Corporation, priority 1999, dated 2002).

What was measured:
[1] = Reduction potential of organic acceptor compound by cyclic voltammetry; assay type: physicochemical; settings: for Redox potential / Reduction potential [V]: organic acceptor; for Reduction Potential: to reference electrode (Ag+/Ag), cyclic voltammetry in dichloromethane; for Reduction potential [V] of organic acceptor: organic acceptor added when producing the phthalocyanine crystal, reference electrode (Ag+/Ag)
Experimental: The reduction potential of the organic acceptor compound was determined by a cyclic voltammetry. The measurement conditions are shown below.
Work electrode: glassy carbon
Counter electrode: platinum
Reference electrode: silver/silver nitrate (0.1 mol/1AgNO3-acetonitrile solution)
Electrolyte: tetra-n-butylammonium perchlorate (0.1 mol)
Specimen: acceptor compound (0.001 mol)
Solvent: dichloromethane (1 L)

[2] = Solubility of organic acceptor compound in tetrahydrofuran (solvent of coating solution); assay type: physicochemical; settings: for Solubility / Solubility/THF [% by weight]: THF; for Solubility/THF [% by weight]: organic acceptor; for Solubility/THF [% by weight] of organic acceptor: in THF
Text: Specific examples of the organic acceptor compound are shown below.

Row | Structure (SMILES) | Redox potential ([1]; Table 4) | Redox potential ([1]; Table 6) | Reduction Potential [1] [V] | Solubility [2] [% by weight] | Solubility/THF [% by weight] ([2]; Table 4) | Solubility/THF [% by weight] ([2]; Table 6) | Reduction potential [V] of organic acceptor ([1]; Table 3) [V] | Reduction potential [V] of organic acceptor ([1]; Table 5) [V] | Reduction potential [V] ([1]; Table 1) | Reduction potential [V] ([1]; Table 2) | Solubility/THF [% by weight] ([2]; Table 1) | Solubility/THF [% by weight] ([2]; Table 2) | Solubility/THF [% by weight] of organic acceptor ([2]; Table 3) [% by weight] | Solubility/THF [% by weight] of organic acceptor ([2]; Table 5) [% by weight]
1 | O=C1OC(=O)c2ccccc21 [AC-5, reference compound] | −1.53 | −1.53 | −1.53 | 5 | 5 | 5 |  |  |  |  |  |  |  | 
2 | Cc1ccc(C(=O)c2ccc(C)cc2)cc1 [AC-8, reference compound] | −1.31 | −1.31 | −1.31 | 11 | 11 | 11 |  |  |  |  |  |  |  | 
3 | O=C1c2ccc3c4c(ccc(c24)C(=O)N1C1CCCCC1)C(=O)N(C1CCCCC1)C3=O [AC-3] |  |  | −0.85 | 1 |  |  | −0.85 | −0.85 | −0.85 | −0.85 | 1 | 1 | 1 | 1
4 | O=C1C(Oc2ccccc2)=C(Oc2ccccc2)C(=O)c2ccccc21 [AC-1] | −0.95 | −0.95 | −0.95 | 3 | 3 | 3 | −0.95 | −0.95 | −0.95 | −0.95 | 3 | 3 | 3 | 3
5 | O=C(c1ccccc1)c1ccccc1 [AC-6, reference compound] | −1.32 | −1.32 | −1.32 |  |  |  |  |  |  |  |  |  |  | 
6 | O=C1NC(=O)c2ccccc21 [AC-4] |  |  | −1.28 | 3 |  |  | −1.28 | −1.28 | −1.28 | −1.28 | 3 | 3 | 3 | 3
7 | CC(C)(C)C1=CC(=C2C=C(C(C)(C)C)C(=O)C(C(C)(C)C)=C2)C=C(C(C)(C)C)C1=O [AC-2] |  |  | −0.85 | 3 |  |  | −0.85 | −0.85 | −0.85 | −0.85 | 3 | 3 | 3 | 3
